Experimental data: paper PMC2974656, “Selective killing of human immunodeficiency virus infected cells by non-nucleoside reverse transcriptase inhibitor-induced activation of HIV protease” (Retrovirology, 2010)
Read-outs that look alike come from different tables or passages of the source.

Columns and labels:
in vitro = type: cell-based; details: human, 4 days
Experimental: (§1) The cytotoxicity of inhibitors was determined in parallel on MT4-CMV-EGFP control cells and on MT4-LTR-EGFP-IIIB virus producing cells, respectively.

[1] = tested on: MT4-LTR-EGFP-IIIB HIV-1 producing cells; test: in vitro; type: cell-based; details: for Cytotoxicity on MT4-LTR-EGFP-IIIB cells, in words: summary of Table 1; for CC50: 4 days
Experimental: as §1

[2] = Cytotoxicity on uninfected control cells, EGFP fluorescence per well; type: cell-based; details: human, MT4-CMV-EGFP control cells (uninfected); 4 days; mean ± SD; tested up to 10 μM; read-out: Cytotoxicity on MT4-CMV-EGFP control cells CC50
Experimental: as §1

[3] = design: method as in PMID 12545140; details: under therapy; cited from earlier work
HIV-1IIIB = test: Direct antiviral activity: MT4-LTR-EGFP cells infected with HIV-1IIIB, EGFP fluorescence; type: cell-based; details: read-out: Inhibition of HIV replication in vitro EC50
Experimental: After 3 days of incubation, infected cells were quantified by determination of total EGFP fluorescence per well based on microscopy and subsequent image analysis. Threshold values were determined from the average pixel value plus 6 standard deviations from the uninfected control wells, and the median threshold from all control wells on a plate was defined as baseline GFP expression. Intensity values for the sample wells were then determined by subtracting the background threshold from each pixel value obtained from the image of the respective well and calculating the sum of net pixel intensities. Percent inhibition was calculated as 100 * (1 - (Sample - CC)/(VC - CC)).

[4] = tested on: intracellular Gag processing by HIV PR; type: cell-based, HIV-1
Experimental: In previous studies, high concentrations of NNRTI (5 μM) were required to observe NNRTI mediated activation of intracellular HIV PR activity. […]. Towards this end, we developed a biochemical assay for gel independent quantitation of intracellular Gag processing by HIV PR in the context of a virus producing cell. We had previously shown that additional protein domains, consisting of small epitope tags or even the 27 kDa green fluorescent protein (EGFP), can be inserted between the MA and CA domains of the Gag and Gag-Pol polyproteins without affecting polyprotein production or processing by HIV PR [36]. Based on this, we designed a HIV reporter construct which contained a small N-terminal fragment ('alpha peptide') of Escherichia coli beta-galactosidase (β-Gal), flanked by two HIV PR recognition sites, between the MA and CA coding sequences of Gag (Figure 1A). […] This so called alpha complementation principle can be exploited for use in mammalian cells and has been employed for the establishment of various cell based biochemical assay systems. We reasoned that embedding of the small alpha peptide within the multi-domain polyproteins Gag or Gag-Pol, respectively, should impair its productive association with the omega subunit, while proteolytic release of the alpha peptide from the polyprotein by PR would allow the formation of enzymatically active β-Gal. This should allow us to monitor intracellular Gag and Gag-Pol processing through increased β-Gal activity.
Reconstituted β-Gal activity in cell lysates was measured by cleavage of the chromogenic substrate CPRG [42] as described in Methods.
The activity of β-Gal in cell lysates from transfected 293T cells was measured by enzymatic cleavage of the chromogenic β-Gal substrate chlorphenolred-β-D-galactopyranoside (CPRG, Roche; [42]). At 44 h post transfection, cells were briefly rinsed with PBS and suspended in reporter gene assay lysis buffer (Roche, 600 μl per 6-well dish) supplemented with a protease inhibitor mix (Roche). Cell suspensions were incubated for 10 min at room temperature and cell debris was subsequently removed by brief centrifugation. Five μl of supernatant were diluted in 96-well plates with 95 μl CPRG reaction buffer (50 mM potassium phosphate, pH 7.5, 1 mM MgCl2) and pre-warmed for 5 min to 37°C. 100 μl of pre-warmed reaction mix (100 μM CPRG in CPRG reaction buffer supplemented with protease inhibitor cocktail and 40 μM β-mercaptoethanol) were added and β-Gal mediated cleavage of CPRG was monitored by recording absorption at 592 nm every 2 min for 20 min at 37°C using a TECAN Safire multi-well reader. OD592 values were plotted over time and relative reaction rates (OD592/min) were determined from the initial linear velocities.

RT heterodimer (p66/p51) = molecular target: T1, RT heterodimer (p66/p51) (Human immunodeficiency virus type 1 group M subtype B, UniProt P04585); test: cell-based; type: cell-based, HIV-1
T1 construct: the bait protein (p66) was fused to the C-terminus of a chimeric receptor; expressed in transfected cells; host or cells: mammalian cells
From the text: RT heterodimer formation was monitored using a mammalian two hybrid system described previously. In brief, the bait protein (p66) was fused to the C-terminus of a chimeric receptor consisting of the extracellular part of the erythropoietin receptor and the intracellular part of the leptin receptor incapable of STAT activation. The prey protein (p51) was coupled to a part of the cytoplasmic tail of the gp130 chain carrying several STAT3 recruitment domains. Interaction of bait and prey protein leads to functional complementation of STAT3 activity, which results in Epo dependent induction of a STAT3-responsive luciferase reporter gene. Enhancement of this interaction by the addition of compounds can thus be measured by an increase of luciferase expression.

[5] = tested on: MT4-CMV-EGFP control cells; test: Cytotoxicity on uninfected control cells, EGFP fluorescence per well; type: cell-based
Experimental: as §1

[6] = tested on: HXB2D-EGFP infected CD4 positive cells isolated from PBMC; test: Killing of HIV-1 infected CD4 positive primary T-cells, flow cytometry; type: cell-based, human; details: 1 μM NNRTI + 1 μM AZT, 3 days
Experimental: To validate our results obtained for the persistently infected cell line in a more relevant cell system we performed additional infection experiments using human peripheral blood mononuclear cells (PBMC). […]. PBMC isolated from healthy blood donors were activated and infected with a replication competent HIV-1 derivative which carries a gfp gene in the nef locus. The co-receptor antagonist AMD-3100 was added at day 2 post infection to prevent further viral spread. This was done to distinguish the proposed killing of infected cells from the inhibitory effect of NNRTIs and PIs on virus replication. […]. […] Similar results were obtained upon infection of CD4-positive primary T-cells with an EGFP-expressing virus (Figure 4B).
Figure 4 NNRTI induced selective killing of HIV-1 infected primary human cells. (A) PBMC prepared from buffy coats of healthy blood donors were infected with HIV-1AGFP. At day 2 post infection, 100 ng/ml AMD-3100 was added to all samples to prevent further infection. […] After further incubation for 5 days, cells were harvested and analyzed for the proportion of infected GFP expressing cells by flow cytometry. […] P-values were calculated using a two-tailed unpaired t-test (GraphPad Prism). Values were normalized to the respective solvent control. (B) CD4 positive cells isolated from PBMC were infected with HXB2D-EGFP. […] After further incubation for 3 days, cells were harvested and analyzed for the proportion of infected cells by flow cytometry. […] Asterisks: non-infected controls.
Peripheral blood mononuclear cells (PBMC) were purified from buffy coats of HIV-negative blood donors, grown in supplemented RPMI 1640 and stimulated by the addition of 10 ng/ml IL-2 (Biomol) and 2 μg/ml PHA (Sigma). PBMC pooled from two donors each were used for infection. […] For infection of PBMC, the HIV-1 derivatives HIV-1-AGFP [49] carrying the gfp gene fused to the codon for amino acid 16 of Nef in pNL4-3, or HXB2D-EGFP [60], which carries an egfp gene in the place of the viral nef open reading frame, were used as indicated. […]

HIV-1AGFP infected PBMC = test: Killing of HIV-1 infected PBMC, proportion of GFP expressing cells by flow cytometry; type: cell-based, human; details: 1 μM NNRTI, added day 2 post infection with AMD-3100, 5 days
Experimental: PBMC isolated from healthy blood donors were activated and infected with a replication competent HIV-1 derivative which carries a gfp gene in the nef locus [49]. The co-receptor antagonist AMD-3100 was added at day 2 post infection to prevent further viral spread.

[7] = tested on: Gag processing in MT-4-IIIB cells; test: Immunoblot of Gag processing in chronically infected MT-4 cells; type: cell-based, HIV-1; details: 1 μM, day 2 post addition
[8] = tested on: intracellular Gag processing by HIV PR; type: cell-based, HIV-1; details: 2 μM LPV, 48 h post transfection; DMSO control 0.109 min^-1
Gag processing by HIV PR = test: Immunoblot analysis of Gag processing in transfected 293T cells; type: cell-based, HIV-1; details: 2 μM LPV
Experimental: 293T cells were seeded in 6-well plates and transfected with the indicated constructs using FuGene6 (Roche) according to the manufacturer's instructions. Cell lysates and tissue culture supernatants were harvested at 44-48 h post transfection. Virus was purified by ultracentrifugation through a 20% (w/w) sucrose cushion. Cell lysates, tissue culture supernatants or pelleted viral particles were separated by SDS-PAGE (17.5% acrylamide; acrylamide:bisacrylamide 200:1). Proteins were transferred to nitrocellulose by semi-dry blotting and detected using polyclonal antisera raised against recombinant HIV-1 CA or MA, or a commercial antiserum against β-Gal (Abcam, ab616), respectively.

[9] = no DRV, mean ± SD, tested up to 10 μM, read-out: Cytotoxicity on MT4-LTR-EGFP-IIIB HIV-1 producing cells CC50
[10] = 293T cells, 44 h post transfection

SMILES: O=C1Nc2ccc(Cl)cc2[C@@](C#CC2CC2)(C(F)(F)F)O1 [EFV, efavirenz]
- CC50 at 4 days (in vitro; [9]): 1710 ± 430 nM
- CC50 at 4 days (in vitro; CC50 on virus producing cells in the absence of DRV, one representative experiment (Fig. 3C), 4 parameter fit): 2440 nM
- Cytotoxicity on MT4-LTR-EGFP-IIIB cells, in words [1]: less cytotoxic
- CC50 at 4 days [2]: > 10000 nM
- Peak serum levels [3]: micromolar range
- EC50 (HIV-1IIIB; Human immunodeficiency virus 1, 72 h): 1.9 ± 0.9 nM
- Gag processing or β-Gal activity, pCHIV.MAα variant with D25A mutation (PR-) ([4]; 5 μM EFV): no increase
- β-Gal activity, pCHIV.MAα 2PR (linked PR dimer) ([4]; 5 μM EFV): No effect
- β-Gal activity, pCHIV.MAα ([4]; 5 μM EFV, equal amounts of pCHIV.MAα and pCMVω): significant increase
- Concentration required to achieve the maximal effect on β-Gal activity [4, 10]: ~ 1 μM

SMILES: Cc1cc(S(N)(=O)=O)ccc1NC(=O)COc1ccc(Cl)cc1C(=O)c1cc(Cl)cc(C#N)c1 [GW-678248]
- CC50 [1, 9]: 630 ± 290 nM
- CC50 ([1]; read-out: CC50 on virus producing cells in the absence of DRV, one representative experiment (Fig. 3C), 4 parameter fit): 350 nM
- Cytotoxicity on MT4-LTR-EGFP-IIIB cells, in words [1]: submicromolar range
- EC50 (RT heterodimer (p66/p51); concentration enhancing luciferase signal by 50% over control, read-out: Enhancement of RT-Dimerization EC50): 3.2 nM
- Promotion of RT dimerization, in words (RT heterodimer (p66/p51); summary of Table 1): low nM range
- CC50 [5]: > 10000 nM
- Cytotoxicity on infected CD4-positive primary T-cells [6]: PR dependent cytotoxicity
- Infected primary cells (PBMC) as compared with the control (HIV-1AGFP infected PBMC): significant reduction
- EC50 (HIV-1IIIB; MT4-LTR-EGFP cells, HIV-1IIIB MOI 0.01, 3 days, mean ± SD of three or more measurements): 0.84 ± 0.25 nM
- Concentration showing strong β-Gal activity enhancement [4, 10]: ~ 250 nM
- NNRTI mediated enhancement of Gag processing in virus producing cells [7]: decreased ratio of Gag to intermediate and fully mature processing products

SMILES: Cc1cccc(C)c1OCC(=O)N[C@@H](Cc1ccccc1)[C@@H](O)C[C@H](Cc1ccccc1)NC(=O)[C@H](C(C)C)N1CCCNC1=O [LPV, lopinavir]
- Relative rate of CPRG cleavage [8]: 0.054 min⁻¹
- Gagα processing as determined by immunoblot (Gag processing by HIV PR): nearly completely blocked
- β-Gal activity in the cell lysates ([4]; 2 μM LPV, result in words): reduced, but did not abolish
